For assay [1], the target named is T1, Beta-secretase 1 (Homo sapiens, UniProt P56817).
Assay [2] has as its target T1, Beta-secretase 1. The source holds these as a separate data set.

The source of these data is ChEMBL document CHEMBL1142255, “Potent pyrrolidine- and piperidine-based BACE-1 inhibitors” (Bioorg Med Chem Lett, 2008).

pIC50: −log10 of the molar value.

T1 sequence (P56817 whole entry): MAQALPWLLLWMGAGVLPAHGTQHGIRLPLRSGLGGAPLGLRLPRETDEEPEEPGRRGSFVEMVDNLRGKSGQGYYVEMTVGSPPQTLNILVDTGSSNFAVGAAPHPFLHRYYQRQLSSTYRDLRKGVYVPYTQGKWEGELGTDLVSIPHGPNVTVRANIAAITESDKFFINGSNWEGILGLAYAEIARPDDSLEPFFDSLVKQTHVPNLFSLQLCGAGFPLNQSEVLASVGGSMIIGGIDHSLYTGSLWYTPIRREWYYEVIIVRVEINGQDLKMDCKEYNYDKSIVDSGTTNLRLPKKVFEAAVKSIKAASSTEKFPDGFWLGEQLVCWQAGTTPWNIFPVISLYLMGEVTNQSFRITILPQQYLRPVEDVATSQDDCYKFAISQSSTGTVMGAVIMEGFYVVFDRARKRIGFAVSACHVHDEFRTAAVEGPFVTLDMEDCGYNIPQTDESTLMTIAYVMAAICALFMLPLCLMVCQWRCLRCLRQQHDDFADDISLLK

For `CCCN(CCC)C(=O)c1cc(C)cc(C(=O)N[C@@H](Cc2cc(F)cc(F)c2)[C@H](O)[C@H]2C[C@@H](OC)CN2)c1`, the results for the negative-log IC50 (pIC50) in assay [1] and in assay [2] were 6.73 and 6.11, respectively. The corresponding values for `CCCN(CCC)C(=O)c1cc(C)cc(C(=O)N[C@@H](Cc2cc(F)cc(F)c2)[C@H](O)[C@H]2C[C@@H](OCCN(C)C)CCN2)c1` are 7.59 and 6.32. The corresponding values for `CCCN(CCC)C(=O)c1cc(C)cc(C(=O)N[C@@H](Cc2cc(F)cc(F)c2)[C@H](O)[C@H]2CCCN2)c1` are 7.19 and 6.48.

`CCCN(CCC)C(=O)c1cc(C)cc(C(=O)N[C@@H](Cc2cc(F)cc(F)c2)[C@H](O)[C@H]2C[C@@H](OC(C)=O)CCN2)c1`: the pIC50 is 5.70 in assay [1] and 5.52 in assay [2]. In the same order, the values of `CCCN(CCC)C(=O)c1cc(C)cc(C(=O)N[C@@H](Cc2cc(F)cc(F)c2)[C@H](O)[C@H]2C[C@@H](CCc3ccccc3)CCN2)c1` are 6.72 and 5.73. The corresponding values for `CCCN(CCC)C(=O)c1cc(C)cc(C(=O)N[C@@H](Cc2cc(F)cc(F)c2)[C@H](O)[C@H]2C[C@@H](CC3CCCCC3)CCN2)c1` are 6.20 and 5.70. The corresponding values for `CCCN(CCC)C(=O)c1cc(C)cc(C(=O)N[C@@H](Cc2cc(F)cc(F)c2)[C@H](O)[C@H]2C[C@@H](C3CCCCC3)CCN2)c1` are 6.21 and 5.38. For `CCCN(CCC)C(=O)c1cc(C)cc(C(=O)N[C@@H](Cc2cc(F)cc(F)c2)[C@H](O)[C@H]2C[C@@H](OCCOC)CCN2)c1`, the negative-log IC50 (pIC50) in assay [1] was 8.40; in assay [2], 6.96. Consider `CCCN(CCC)C(=O)c1cc(C)cc(C(=O)N[C@@H](Cc2cc(F)cc(F)c2)[C@H](O)[C@H]2C[C@@H](Cc3ccccc3OC)CCN2)c1`, for which the negative logarithm of the IC50 (pIC50) in assay [1] is 5.87. `CCCN(CCC)C(=O)c1cc(C)cc(C(=O)N[C@@H](Cc2cc(F)cc(F)c2)[C@H](O)[C@H]2C[C@@H](Cc3cccc(OC)c3)CCN2)c1` showed a pIC50 in assay [1] of 6.48. As for `CCC[C@H]1CCN[C@@H]([C@@H](O)[C@H](Cc2cc(F)cc(F)c2)NC(=O)c2cc(C)cc(C(=O)N(CCC)CCC)c2)C1`, the results for the negative-log IC50 (pIC50) in assay [1] and in assay [2] were 7.15 and 5.92, respectively. The corresponding values for `CCCN(CCC)C(=O)c1cc(C)cc(C(=O)N[C@@H](Cc2cc(F)cc(F)c2)[C@H](O)[C@H]2CCN2)c1` are 6.11 and 5.55.

`CCCCO[C@H]1CCN[C@@H]([C@@H](O)[C@H](Cc2cc(F)cc(F)c2)NC(=O)c2cc(C)cc(C(=O)N(CCC)CCC)c2)C1`: the values for the pIC50 in assay [1] and in assay [2] were 8.15 and 6.80, respectively. The corresponding values for `CCCN(CCC)C(=O)c1cc(C)cc(C(=O)N[C@@H](Cc2cc(F)cc(F)c2)[C@H](O)[C@H]2C[C@@H](OC(C)C)CCN2)c1` are 6.92 and 6.07. In the same order, the values of `CCCN(CCC)C(=O)c1cc(C)cc(C(=O)N[C@@H](Cc2cc(F)cc(F)c2)[C@H](O)[C@H]2C[C@@H](OCC3CCCCC3)CCN2)c1` are 7.92 and 6.25. In the same order, the values of `CCCN(CCC)C(=O)c1cc(C)cc(C(=O)N[C@@H](Cc2cc(F)cc(F)c2)[C@H](O)[C@H]2C[C@@H](OCC3CC3)CCN2)c1` are 8.22 and 6.92. Turning to `CCCN(CCC)C(=O)c1cc(C)cc(C(=O)N[C@@H](Cc2cc(F)cc(F)c2)[C@H](O)[C@H]2C[C@@H](O)CN2)c1`, the negative-log IC50 (pIC50) in assay [1] was 7.05; in assay [2], 5.84. The corresponding values for `CCCN(CCC)C(=O)c1cc(C)cc(C(=O)N[C@@H](Cc2cc(F)cc(F)c2)[C@H](O)[C@H]2C[C@@H](Cc3ccc(OC)cc3)CCN2)c1` are 6.36 and 5.70.

For orientation: pIC50 means the IC50 on a negative log10 scale, so that one unit is a factor of ten. A high value points to a low IC50.
